Data: patent US6596706B1, “Piperazine-cyclodextrin complexes” (Daiichi Pharmaceutical Co., Ltd., priority 1997, dated 2003)

Key:
[1] = Solubility of compound (1) in aqueous SBE7-β-CD solution or water, HPLC of filtered supernatant; assay type: physicochemical
Description: To an aqueous solution of a β-cyclodextrin sulfobutyl ether sodium salt (product of CyDex; hereinafter may be abbreviated as SBE7-β-CD; molecular weight 2162.01; substitution ratio: 7/21 (about 33%)) (26, 40, or 72 mM; 2.5 ml) was added an excessive amount of 3-[2-[4-(3-chloro-2-methylphenyl)-1-piperadinyl]ethyl]-5,6-dimethoxy-1-(4-imidazolylmethyl)-1H-indazole,.2HCl.3.5H2O(hereinafter may be abbreviated as compound (1); molecular weight: 631.0) (400 mg). The mixture was allowed to stand for 7 days in a 25° C. water bath. During the standing period, the mixture was sonicated once a day for 15 minutes, followed by stirring for 2 minutes. On the first, fifth, and seventh days, pH of the mixture was adjusted to 4.0 by addition of adequate amount of HCl. After pH was adjusted on the seventh day, the amount of the entirety of the mixture was adjusted to 5 ml (to thereby achieve a SBE7-β-CD concentration of […]). Six days later, the mixture was subjected to centrifugal separation, to thereby collect a supernatant. […] Similarly, the solubility of the piperazine derivative (I) for water was also determined by HPLC.
(Conditions for High Performance Liquid Chromatography (HPLC))
Mobile phase: 50 mM phosphate buffer solution (pH 5.5)/acetonitrile (1:1)
Column temperature: 40° C.

[2] = system: red blood cells; assay: Hemolysis activity with red blood cell suspension, absorbance at 588 nm; assay type: cell-based; details: for hemolysis activity of compound (1): 0.6 mM compound (1), more suppressed at higher cyclodextrin concentration, FIG. 1
Description: To 10 mM isotonic phosphate buffer solution (pH 6.0, 2 ml) containing SBE7-β-CD or hydroxypropyl-β-cyclodextrin (product of Nihon Shokuhin Kako; hereinafter may be abbreviated as HP-β-CD; molecular weight 1413; substitution ratio: 4.8/21 (about 23%)) at a different concentration and 0.6 mM compound (1) (concentration that permits complete hemolysis) was added a suspension (0.2 ml) of red blood cells suspension (5%). The mixture was maintained for 30 minutes at 37° C. After centrifugal separation (1000× g, 5 min), oxyhemoglobin and methohemoglobin contained in the supernatant were determined based on the absorbance at 588 nm, to thereby investigate the hemolysis activity of compound (1).

Concentration of compound (1) in supernatant ([1]; Compound (1) alone, solubility for water): 14600 µM
Concentration of compound (1) in supernatant ([1]; SBE7-β-CD 13 mM, 25° C., pH 4.0): 19000 µM
Concentration of compound (1) in supernatant ([1]; SBE7-β-CD 20 mM, 25° C., pH 4.0): 25600 µM
Concentration of compound (1) in supernatant ([1]; SBE7-β-CD 36 mM, 25° C., pH 4.0): 56700 µM
Structure (SMILES): COc1cc2c(CCN3CCN(c4cccc(Cl)c4C)CC3)nn(Cc3c[nH]cn3)c2cc1OC.Cl.Cl [compound (1), 3-[2-[4-(3-chloro-2-methylphenyl)-1-piperadinyl]ethyl]-5,6-dimethoxy-1-(4-imidazolylmethyl)-1H-indazole,.2HCl.3.5H2O]
concentration that permits complete hemolysis ([2]; 10 mM isotonic phosphate buffer pH 6.0, 30 minutes at 37° C.): 600 µM
hemolysis activity of compound (1) ([2]; complex formed by addition of HP-β-CD): suppressed
hemolysis activity of compound (1) ([2]; complex formed by addition of SBE7-β-CD): suppressed
